Reference: patent US8465960B2 (priority 2007, dated 2013)

Key:
[1] = system: influenza B virus NA with Gly402Ser mutation; assay type: biochemical
[2] = biological target: influenza B virus NA with Ser250Gly mutation (Influenza B virus, UniProt P27907, S248G); assay type: biochemical
[3] = biological target: influenza B virus NA with Asp198Asn mutation (Influenza B virus, UniProt P27907, D196N)
[4] = biological target: influenza B virus NA with Ile222Thr mutation (UniProt P03474, I221T, species not given)

## CCOC(=O)C1=C[C@@H](OC(CC)CC)[C@H](NC(C)=O)[C@@H](N)C1 [oseltamivir]
[1]
  increase of IC50 of posttreatment isolate compared to virus isolated before treatment: 3.9 fold
[2]
  effect of mutation on sensitivity: did not reduce sensitivity
[3]
  reduction in drug sensitivity compared with median IC50 of type B viruses: 3-4 fold
[4]
  reduction in sensitivity compared with median IC50 of type B viruses: 6-7 fold
